# Tested on: Beet Armyworm (BAW) (Spodoptera exigua)
# Experiment: Bioassay on Beet Armyworm (BAW), 128-well diet tray assay
# Type: in vivo
# Settings: Table 3: Assay Results Part 1
# Protocol: Certain molecules disclosed in this document were tested against BAW, CEW and CL using procedures described in the following examples. In the reporting of the results, the “BAW & CEW & CL Rating Table” was used (See Table Section).
# Bioassays on BAW (Spodoptera exigua)
# Bioassays on BAW were conducted using a 128-well diet tray assay. One to five second instar BAW larvae were placed in each well (3 mL) of the diet tray that had been previously filled with 1 mL of artificial diet to which 50 μg/cm^2 of the test compound (dissolved in 50 μL of 90:10 acetone-water mixture) had been applied (to each of eight wells) and then allowed to dry. Trays were covered with a clear self-adhesive cover, and held at 25° C., 14:10 light-dark for five to seven days. Percent mortality was recorded for the larvae in each well; activity in the eight wells was then averaged. The results are indicated in the tables entitled “Table 3: Assay Results Part 1” and “Table 4: Assay Results Part 2” (See Table Section).
row,Compound,BAW Rating
1,"CN(C)C(=O)NCc1ccc(/C=C/C(c2cc(Cl)c(Cl)c(Cl)c2)C(F)(F)F)cc1Cl (stereo not drawn) [CC36, (E)-3-(2-Chloro-4-(4,4,4-trifluoro-3-(3,4,5-trichlorophenyl)but-1-en-1-yl)benzyl)-1,1-dimethylurea]",A (50-100)
2,Cc1cc(/C=C/C(c2cc(Cl)cc(Cl)c2)C(F)(F)F)ccc1C(=O)NCC(=O)N(C)CC(F)(F)F (stereo not drawn) [AC51],A (50-100)
3,O=C(CC(F)(F)F)NCc1ccc(/C=C/C(c2cc(Cl)c(Cl)c(Cl)c2)C(F)(F)F)cc1C(F)(F)F (stereo not drawn) [CC24],A (50-100)
4,O=C(NCc1ccc(/C=C/C(c2cc(Cl)cc(Cl)c2)C(F)(F)F)cc1C(F)(F)F)C1CC1 (stereo not drawn) [CC21],A (50-100)
5,O=C(NCc1ccc(/C=C/C(c2cc(Cl)c(Cl)c(Cl)c2)C(F)(F)F)cc1C(F)(F)F)c1cccnc1 (stereo not drawn) [CC23],A (50-100)
6,"N#Cc1cc(/C=C/C(c2cc(Cl)c(Cl)c(Cl)c2)C(F)(F)F)ccc1-n1cnc(N(C(=O)C2CC2)C(=O)C2CC2)n1 (stereo not drawn) [DC42, (E)-N-(1-(2-Cyano-4-(4,4,4-trifluoro-3-(3,4,5-trichlorophenyl)but-1-en-1-yl)phenyl)-1H-1,2,4-triazol-3-yl)-N-(cyclopropanecarbonyl)cyclopropanecarboxamide]",A (50-100)
7,O=C(NCc1ccc(/C=C/C(c2ccc(Cl)c(Cl)c2)C(F)(F)F)cc1Cl)C1CC1 (stereo not drawn) [CC17],A (50-100)
8,Cc1cc(/C=C/C(c2ccc(Cl)c(Cl)c2)C(F)(F)F)ccc1C(=O)NCc1ccc(Cl)nc1 (stereo not drawn) [AC37],A (50-100)
9,Cc1cc(/C=C/C(c2cc(Cl)cc(Cl)c2)C(F)(F)F)ccc1C(=O)NCC(=O)NC1CSC1 (stereo not drawn) [AC41],A (50-100)
10,Cc1cc(/C=C/C(c2cc(Cl)cc(Cl)c2)C(F)(F)F)ccc1C(=O)NCc1nc2ccccc2s1 (stereo not drawn) [AC42],A (50-100)
11,"Cc1cc(/C=C/C(c2cc(Cl)cc(Cl)c2)C(F)(F)F)ccc1C(=S)NCc1ccc(Cl)nc1 (stereo not drawn) [AC115, (E)-N-((6-Chloropyridin-3-yl)methyl)-4-(3-(3,5-dichlorophenyl)-4,4,4-trifluorobut-1-en-1-yl)-2-methylbenzothioamide]",A (50-100)
12,O=C(NCc1ccc(/C=C/C(c2cc(Cl)c(Cl)c(Cl)c2)C(F)(F)F)cc1Br)C1CC1 (stereo not drawn) [CC26],A (50-100)
13,O=C(NC1CCCc2cc(/C=C/C(c3cc(Cl)c(Cl)c(Cl)c3)C(F)(F)F)ccc21)C1CC1 (stereo not drawn) [BC7],A (50-100)
14,"C/C(=C\C(c1cc(Cl)cc(Cl)c1)C(F)(F)F)c1ccc(-n2cncn2)cc1 (stereo not drawn) [DC68, (E)-1-(4-(4-(3,5-Dichlorophenyl)-5,5,5-trifluoropent-2-en-2-yl)phenyl)-1H-1,2,4-triazole]",A (50-100)
15,Cc1cc(/C=C/C(c2cc(Cl)cc(Cl)c2)C(F)(F)F)ccc1C(=O)NCc1ccccc1F (stereo not drawn) [AC9],A (50-100)
16,O=C(NCc1ccc(/C=C/C(c2cc(Cl)c(Cl)c(Cl)c2)C(F)(F)F)cc1)C1CC1 (stereo not drawn) [CC5],A (50-100)
17,O=C(NC1C[S+]([O-])C1)c1ccc(/C=C/C(c2cc(Cl)c(F)c(Cl)c2)C(F)(F)F)cc1F (stereo not drawn) [AC87],A (50-100)
18,Cc1cc(/C=C/C(c2cc(Cl)cc(Cl)c2)C(F)(F)F)ccc1C(=O)Nc1ccc(Cl)nc1 (stereo not drawn) [AC59],A (50-100)
19,"O=C(NC1CCN(C(=O)CC(F)(F)F)CC1)c1ccc(/C=C/C(c2cc(Cl)c(Cl)c(Cl)c2)C(F)(F)F)cc1Br (stereo not drawn) [AC104, (E)-2-Bromo-4-(4,4,4-trifluoro-3-(3,4,5-trichlorophenyl)but-1-en-1-yl)-N-(1-(3,3,3-trifluoropropanoyl)piperidin-4-yl)benzamide]",A (50-100)
20,"O=C(NNc1ccc(/C=C/C(c2cc(Cl)c(Cl)c(Cl)c2)C(F)(F)F)cc1)C1CC1 (stereo not drawn) [CC50, (E)-N′-(4-(4,4,4-Trifluoro-3-(3,4,5-trichlorophenyl)but-1-en-1-yl)phenyl)cyclopropanecarbohydrazide]",A (50-100)
21,O=C(NC1CSC1)c1ccc(/C=C/C(c2cc(Cl)c(Cl)c(Cl)c2)C(F)(F)F)cc1C(F)(F)F (stereo not drawn) [AC34],A (50-100)
22,O=C(CNC(=O)c1ccc(/C=C/C(c2cc(Cl)cc(Cl)c2)C(F)(F)F)cc1F)NCC(F)(F)F (stereo not drawn) [AC62],A (50-100)
23,Cc1cc(/C=C/C(c2cc(Cl)cc(Cl)c2)C(F)(F)F)ccc1C(=O)NCC(=O)NC1CS(=O)(=O)C1 (stereo not drawn) [AC81],A (50-100)
24,"O=C(CNC(=O)c1ccc(/C=C/C(c2cc(Cl)c(Cl)c(Cl)c2)C(F)(F)F)cc1Cl)NCC(F)(F)F (stereo not drawn) [AC64, (E)-2-Chloro-N-(2-oxo-2-((2,2,2-trifluoroethyl)amino)ethyl)-4-(4,4,4-trifluoro-3-(3,4,5-trichlorophenyl)but-1-en-1-yl)benzamide]",A (50-100)
25,O=C(NCc1ncc(/C=C/C(c2cc(Cl)c(Cl)c(Cl)c2)C(F)(F)F)cc1Cl)C1CC1 (stereo not drawn) [CC45],A (50-100)
26,O=C(NCCc1ccc(Cl)nc1)c1ccc(/C=C/C(c2cc(Cl)c(Cl)c(Cl)c2)C(F)(F)F)cc1Br (stereo not drawn) [AC113],B (More than 0-Less than 50)

row,Compound,BAW Rating
1,Cc1cc(/C=C/C(c2cc(Cl)c(F)c(Cl)c2)C(F)(F)F)ccc1C(=O)NCc1ccc(Cl)nc1 (stereo not drawn) [AC38],A (50-100)
2,O=C(NC1CS(=O)(=O)C1)c1ccc(/C=C/C(c2cc(Cl)c(F)c(Cl)c2)C(F)(F)F)cc1F (stereo not drawn) [AC84],A (50-100)
3,Cc1cc(/C=C/C(c2cc(Cl)c(F)c(Cl)c2)C(F)(F)F)ccc1C(=O)NCc1cc(Cl)ccn1 (stereo not drawn) [AC77],A (50-100)
4,O=C(NCc1ccc(C(F)(F)F)nc1)c1ccc(/C=C/C(c2cc(Cl)c(Cl)c(Cl)c2)C(F)(F)F)cc1Br (stereo not drawn) [AC75],A (50-100)
5,Cc1cc(C)cc(C(/C=C/c2ccc(-n3cncn3)cc2)C(F)(F)F)c1 (stereo not drawn) [DC11],A (50-100)
6,O=C(NCc1ccc(Cl)nc1)c1ccc(/C=C/C(c2cc(Cl)c(Cl)c(Cl)c2)C(F)(F)F)cc1Cl (stereo not drawn) [AC28],A (50-100)
7,"O=C(C1CC1)N(Cc1ccccn1)Cc1ccc(/C=C/C(c2cc(Cl)c(Cl)c(Cl)c2)C(F)(F)F)cc1C(F)(F)F (stereo not drawn) [CC29, (E)-N-(Pyridin-2-ylmethyl)-N-(4-(4,4,4-trifluoro-3-(3,4,5-trichlorophenyl)but-1-enyl)-2-(trifluoromethyl)benzyl)cyclopropanecarboxamide]",A (50-100)
8,"O=C(NC1CCNCC1)c1ccc(/C=C/C(c2cc(Cl)c(Cl)c(Cl)c2)C(F)(F)F)cc1Br (stereo not drawn) [AC114, (E)-2-Bromo-N-(piperidin-4-yl)-4-(4,4,4-trifluoro-3-(3,4,5-trichlorophenyl)but-1-en-1-yl)benzamide]",A (50-100)
9,O=C(NCc1ccc(/C=C/C(c2cc(Cl)c(Cl)c(Cl)c2)C(F)(F)F)cc1Cl)N1CCOCC1 (stereo not drawn) [CC34],A (50-100)
10,O=C(CC(F)(F)F)NNc1ccc(/C=C/C(c2cc(Cl)c(Cl)c(Cl)c2)C(F)(F)F)cc1 (stereo not drawn) [CC51],A (50-100)
11,O=C(NCc1ccc(Cl)nc1)c1ccc(/C=C/C(c2cc(Cl)c(Cl)c(Cl)c2)C(F)(F)F)cc1C(F)(F)F (stereo not drawn) [AC36],A (50-100)
12,O=C(CC(F)(F)F)NCc1ccc(/C=C/C(c2cc(Cl)c(Cl)c(Cl)c2)C(F)(F)F)cc1 (stereo not drawn) [CC6],A (50-100)
13,"O=C(NOc1ccc(/C=C/C(c2cc(Cl)c(Cl)c(Cl)c2)C(F)(F)F)cc1)C1CC1 (stereo not drawn) [CC52, (E)-N-(4-(4,4,4-Trifluoro-3-(3,4,5-trichlorophenyl)but-1-en-1-yl)phenoxy)cyclopropanecarboxamide]",A (50-100)
14,"FC(F)(F)CNC(=S)CNC(=S)c1ccc(/C=C/C(c2cc(Cl)c(Cl)c(Cl)c2)C(F)(F)F)cc1Br (stereo not drawn) [AC90, (E)-2-Bromo-N-(2-thioxo-2-((2,2,2-trifluoroethyl)amino)ethyl)-4-(4,4,4-trifluoro-3-(3,4,5-trichlorophenyl)but-1-en-1-yl)benzothioamide]",A (50-100)
15,C=CCNC(=S)NCc1ccc(/C=C/C(c2cc(Cl)c(Cl)c(Cl)c2)C(F)(F)F)cc1Cl (stereo not drawn) [CC38],A (50-100)
16,"Cc1cc(/C=C/C(c2cc(Cl)cc(Cl)c2)C(F)(F)F)ccc1C(=O)NCc1cncnc1 (stereo not drawn) [AC39, 4-((E)-3-(3,5-Dichlorophenyl)-4,4,4-trifluorobut-1-enyl)-2-methyl-N-((pyrimidin-5-yl)methyl)benzamide]",A (50-100)
17,COc1cc(/C=C/C(c2cc(Cl)c(F)c(Cl)c2)C(F)(F)F)ccc1C(=O)NC1CSC1 (stereo not drawn) [AC71],A (50-100)
18,FC(F)(F)C(/C=C/c1ccc(-n2cncn2)cc1)c1ccc(Cl)c(Cl)c1 (stereo not drawn) [DC12],A (50-100)
19,Cc1cc(/C=C/C(c2cc(Cl)c(Cl)c(Cl)c2)C(F)(F)F)ccc1C(=O)NCc1ccc(Cl)nc1 (stereo not drawn) [AC22],A (50-100)
20,CCC(=O)NCc1ccc(/C=C/C(c2cc(Cl)cc(Cl)c2)C(F)(F)F)cc1 (stereo not drawn) [CC4],A (50-100)
21,FC(F)(F)C(/C=C/c1ccc(-n2cncn2)cc1)c1ccc(Cl)cc1 (stereo not drawn) [DC4],A (50-100)
22,O=C(NCc1ccc(/C=C/C(c2cc(Cl)c(Cl)c(Cl)c2)C(F)(F)F)cc1C(F)(F)F)C1CC1 (stereo not drawn) [CC22],A (50-100)
23,"O=C(CNC(=O)c1ccc(/C=C\C(c2cc(Cl)c(Cl)c(Cl)c2)C(F)(F)F)cc1Br)NCC(F)(F)F (stereo not drawn) [AC95, (Z)-2-Bromo-N-(2-oxo-2-((2,2,2-trifluoroethyl)amino)ethyl)-4-(4,4,4-trifluoro-3-(3,4,5-trichlorophenyl)but-1-en-1-yl)benzamide]",A (50-100)
24,N#CCN1CCC(NC(=O)c2ccc(/C=C/C(c3cc(Cl)c(Cl)c(Cl)c3)C(F)(F)F)cc2Br)CC1 (stereo not drawn) [AC107],B (More than 0-Less than 50)
25,Cc1cc(/C=C/C(c2cc(Cl)cc(Cl)c2)C(F)(F)F)ccc1C(=O)NCC(=O)NC1CC1 (stereo not drawn) [AC40],A (50-100)

# Reference: patent US9212163B2, “Pesticidal compositions and processes related thereto” (Dow AgroSciences LLC, priority 2012, dated 2015)
